# Measurements from patent publication US20230265151A1, “GIP/GLP1 CO-AGONIST COMPOUNDS” (priority 2020, published 2023).
# Read-outs that look alike come from different tables or passages of the source.
# Assays:
# [1] = target: T1, human Gcg receptor (hGcgR) (Homo sapiens, UniProt P47871); test: [125I]-Glucagon binding, SPA with membranes of HEK293 cells expressing hGcgR; conditions: human GcgR; geometric mean (SEM, n); read-out: Binding Affinity Ki, nM (SEM, n) hGCGR
# T1 construct: expressed in transfected cells; crude membranes
# [2] = target: T2, human GIP receptor (hGIPR) (Homo sapiens, UniProt P48546); test: [125I]-GIP binding, SPA with membranes of CHO cells expressing hGIPR; conditions: human GIPR; geometric mean (SEM, n); read-out: Binding Affinity Ki, nM (SEM, n) hGIPR
# T2 construct: expressed in transfected cells; crude membranes
# T2 sequence (P48546 22-466): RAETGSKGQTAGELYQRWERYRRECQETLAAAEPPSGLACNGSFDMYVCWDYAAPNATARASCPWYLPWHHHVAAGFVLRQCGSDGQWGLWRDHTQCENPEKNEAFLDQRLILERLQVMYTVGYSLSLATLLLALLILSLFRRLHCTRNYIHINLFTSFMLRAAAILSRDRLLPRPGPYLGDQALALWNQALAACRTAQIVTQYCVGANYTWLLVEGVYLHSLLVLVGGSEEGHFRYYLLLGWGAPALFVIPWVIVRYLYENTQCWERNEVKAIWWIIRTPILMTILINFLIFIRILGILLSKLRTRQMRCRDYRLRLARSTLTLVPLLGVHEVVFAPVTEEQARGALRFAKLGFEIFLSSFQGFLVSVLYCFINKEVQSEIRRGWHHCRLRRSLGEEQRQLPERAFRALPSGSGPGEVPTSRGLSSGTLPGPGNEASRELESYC
# hGLP-1R = hGLP-1R (Homo sapiens, UniProt P43220); test: Functional cAMP formation (HTRF) in HEK-293 clonal cells expressing hGLP-1R, 0.1% bovine casein, without or with 1.0% human serum albumin; assay type: cell-based; set-up: expressed in transfected cells; conditions: 37° C.; for Emax: read-out: hGLP-1R Emax, % ± SEM; for EC50: read-out: hGLP-1R EC50, nM (SEM, n)
# Method in brief: (§1)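 Cells were stimulated with peptide for 30 min at 37° C, then intracellular cAMP was measured by competitive HTRF (665/620 nm ratio) and converted to nM using a cAMP standard curve. Relative EC50 and Emax came from four-parameter logistic fits of percent maximal response against peptide concentration.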
# hGIPR = target: T3, hGIPR (Homo sapiens, UniProt P48546); test: Functional cAMP formation (HTRF) in HEK-293 clonal cells expressing hGIPR, 0.1% bovine casein, without or with 1.0% human serum albumin; assay type: cell-based; conditions: for Emax: read-out: hGIPR Emax, % ± SEM; for EC50: read-out: hGIPR EC50, nM (SEM, n)
# T3 construct: expressed in transfected cells
# T3 sequence (P48546 22-466): T2 sequence (P48546 22-466)
# Method in brief: as §1
# hGCGR = target: T4, hGCGR (Homo sapiens, UniProt P47871); test: Functional cAMP formation (HTRF) in HEK-293 clonal cells expressing hGCGR, 0.1% bovine casein, without or with 1.0% human serum albumin; assay type: cell-based; conditions: read-out: hGCGR EC50, nM (SEM, n)
# T4 construct: expressed in transfected cells
# Method in brief: as §1
# [3] = target: T5, human GLP-1 receptor (hGLP-1R) (Homo sapiens, UniProt P43220); test: [125I]-GLP-1 binding, SPA with membranes of HEK293 cells expressing hGLP-1R; conditions: human GLP-1R; geometric mean (SEM, n); read-out: Binding Affinity Ki, nM (SEM, n) hGLP-1R
# T5 construct: expressed in transfected cells; crude membranes
# [4] = cAMP, 0.1% bovine casein (no human serum albumin), geometric mean
# [5] = HEK293, cAMP, 37° C., 0.1% bovine casein and 1.0% human serum albumin, percent of maximal response to GIP(1-42)NH2
# [6] = cAMP, 37° C., 0.1% bovine casein (no human serum albumin), geometric mean
# [7] = cAMP, 37° C., 0.1% bovine casein and 1.0% human serum albumin, geometric mean (SEM, n)
# [8] = 0.1% bovine casein and 1.0% human serum albumin, 37° C., geometric mean
# [9] = cAMP, incubated at 37° C., 0.1% bovine casein (no human serum albumin), geometric mean
# T1 sequence (P47871 26-477): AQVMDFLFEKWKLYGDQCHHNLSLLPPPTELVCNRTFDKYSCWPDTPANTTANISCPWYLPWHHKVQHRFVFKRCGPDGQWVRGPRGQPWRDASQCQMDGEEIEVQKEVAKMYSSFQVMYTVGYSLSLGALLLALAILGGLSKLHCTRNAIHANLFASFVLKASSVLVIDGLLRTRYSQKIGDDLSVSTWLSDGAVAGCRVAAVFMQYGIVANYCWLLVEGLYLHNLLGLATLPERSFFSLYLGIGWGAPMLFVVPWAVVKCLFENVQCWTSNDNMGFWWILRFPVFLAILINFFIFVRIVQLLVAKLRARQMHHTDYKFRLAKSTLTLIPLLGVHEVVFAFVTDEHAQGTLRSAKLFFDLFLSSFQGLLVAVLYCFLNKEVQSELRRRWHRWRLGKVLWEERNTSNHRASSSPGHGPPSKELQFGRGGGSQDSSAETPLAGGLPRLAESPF
# T4 sequence (P47871 26-477): as above
# Chain of hGLP-1R (P43220 24-463): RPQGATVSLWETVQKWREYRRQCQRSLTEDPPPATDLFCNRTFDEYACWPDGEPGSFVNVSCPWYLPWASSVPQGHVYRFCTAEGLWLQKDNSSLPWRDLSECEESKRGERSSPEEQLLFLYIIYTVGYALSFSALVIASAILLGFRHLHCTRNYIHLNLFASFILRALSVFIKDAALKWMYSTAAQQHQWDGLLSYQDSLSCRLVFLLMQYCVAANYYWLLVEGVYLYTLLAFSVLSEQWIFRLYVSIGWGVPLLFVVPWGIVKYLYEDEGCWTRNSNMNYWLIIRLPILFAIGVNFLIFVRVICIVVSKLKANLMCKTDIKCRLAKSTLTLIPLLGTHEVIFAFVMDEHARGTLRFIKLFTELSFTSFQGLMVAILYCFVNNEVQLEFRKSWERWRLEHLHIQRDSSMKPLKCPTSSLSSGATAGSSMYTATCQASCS
# T5 sequence (P43220 24-463): as above
Structure (SMILES),Ki [1],Ki [2],EC50 (hGLP-1R; [4]),Emax (hGIPR; [5]),EC50 (hGIPR; [6]),EC50 (hGCGR; [6]),EC50 (hGCGR; [7]),Ki [3],other results
CC[C@H](C)[C@H](NC(=O)[C@H](CC(C)C)NC(=O)[C@](C)(Cc1ccc(O)cc1)NC(=O)[C@H](CCCCNC(=O)COCCOCCNC(=O)COCCOCCNC(=O)COCCOCCNC(=O)CC[C@H](NC(=O)CCCCCCCCCCCCC(=O)O)C(=O)O)NC(=O)[C@@H](NC(=O)[C@H](Cc1ccccc1)NC(=O)[C@H](CCCN)NC(=O)C(C)(C)NC(=O)[C@H](CCC(N)=O)NC(=O)[C@H](C)NC(=O)[C@H](CCC(N)=O)NC(=O)[C@H](CCCN)NC(=O)[C@H](CC(=O)O)NC(=O)[C@H](CC(C)C)NC(=O)[C@](C)(CC(C)C)NC(=O)[C@@H](NC(=O)C(C)(C)NC(=O)[C@H](Cc1ccc(O)cc1)NC(=O)[C@H](CC(=O)O)NC(=O)[C@H](CO)NC(=O)[C@@H](NC(=O)[C@](C)(Cc1ccccc1F)NC(=O)[C@@H](NC(=O)CNC(=O)[C@H](CCC(=O)O)NC(=O)C(C)(C)NC(=O)[C@@H](N)Cc1ccc(O)cc1)[C@@H](C)O)[C@@H](C)O)[C@@H](C)CC)[C@@H](C)CC)C(=O)N[C@@H](CCCCNC(=O)COCCOCCNC(=O)COCCOCCNC(=O)COCCOCCNC(=O)CC[C@H](NC(=O)CCCCCCCCCCCCC(=O)O)C(=O)O)C(=O)NCC(=O)NCC(=O)N1CCC[C@H]1C(=O)N[C@@H](CO)C(=O)N[C@@H](CO)C(=O)NCC(=O)N[C@@H](C)C(=O)N1CCC[C@H]1C(=O)N1CCC[C@H]1C(=O)N1CCC[C@H]1C(=O)N[C@@H](CO)C(N)=O [Example 479],213 nM,0.0249 nM,0.115 nM,89.5%,0.00718 nM,> 9950 nM,> 9950 nM,0.246 nM,"Emax (hGLP-1R; HEK293, cAMP, 0.1% bovine casein and 1.0% human serum albumin, percent of maximal response to GLP-1(7-36)NH2): 95.3%"
CCCCCCCCCCCC(=O)N[C@@H](CCC(=O)NCCOCCOCC(=O)NCCOCCOCC(=O)NCCCC[C@H](NC(=O)[C@H](CCCN)NC(=O)[C@H](CC(=O)O)NC(=O)[C@H](CC(C)C)NC(=O)[C@](C)(CC(C)C)NC(=O)[C@@H](NC(=O)C(C)(C)NC(=O)[C@H](Cc1ccncc1)NC(=O)[C@H](CC(=O)O)NC(=O)[C@H](CO)NC(=O)[C@@H](NC(=O)[C@](C)(Cc1ccccc1F)NC(=O)[C@@H](NC(=O)CNC(=O)[C@H](CCC(=O)O)NC(=O)C(C)(C)NC(=O)[C@@H](N)Cc1ccc(O)cc1)[C@@H](C)O)[C@@H](C)O)[C@@H](C)CC)C(=O)N[C@@H](C)C(=O)N[C@@H](CCC(N)=O)C(=O)NC(C)(C)C(=O)NCC(=O)N[C@@H](Cc1ccccc1)C(=O)N[C@H](C(=O)N[C@H](CCC(=O)O)C(=O)N[C@@](C)(Cc1ccc(O)cc1)C(=O)N[C@@H](CC(C)C)C(=O)N[C@H](C(=O)N[C@@H](CCCCNC(=O)COCCOCCNC(=O)COCCOCCNC(=O)CC[C@H](NC(=O)CCCCCCCCCCC)C(=O)O)C(=O)NCC(=O)NCC(=O)N1CCC[C@H]1C(=O)N[C@@H](CO)C(=O)N[C@@H](CO)C(=O)NCC(=O)N[C@@H](C)C(=O)N1CCC[C@H]1C(=O)N1CCC[C@H]1C(=O)N1CCC[C@H]1C(=O)N[C@@H](CO)C(N)=O)[C@@H](C)CC)[C@@H](C)CC)C(=O)O [Example 494],135 nM,0.0197 nM,0.15 nM,92.6%,0.0123 nM,> 9950 nM,> 9950 nM,0.188 nM,–
CC[C@H](C)[C@H](NC(=O)[C@H](CC(C)C)NC(=O)[C@](C)(Cc1ccc(O)cc1)NC(=O)[C@@H](CCC(=O)O)NC(=O)[C@@H](NC(=O)[C@H](Cc1ccccc1)NC(=O)[C@H](CCCCNC(=O)COCCOCCNC(=O)COCCOCCNC(=O)CC[C@H](NC(=O)CCCCCCCCCCCCC(=O)O)C(=O)O)NC(=O)C(C)(C)NC(=O)[C@H](CCC(N)=O)NC(=O)[C@H](C)NC(=O)[C@H](CCCCNC(=O)COCCOCCNC(=O)COCCOCCNC(=O)CC[C@H](NC(=O)CCCCCCCCCCCCC(=O)O)C(=O)O)NC(=O)[C@H](CCCN)NC(=O)[C@H](CC(=O)O)NC(=O)[C@H](CC(C)C)NC(=O)[C@](C)(CC(C)C)NC(=O)[C@@H](NC(=O)[C@H](CO)NC(=O)[C@H](Cc1ccncc1)NC(=O)[C@H](CC(=O)O)NC(=O)[C@H](CO)NC(=O)[C@@H](NC(=O)[C@](C)(Cc1ccccc1F)NC(=O)[C@@H](NC(=O)CNC(=O)[C@H](CCC(=O)O)NC(=O)C(C)(C)NC(=O)[C@@H](N)Cc1ccc(O)cc1)[C@@H](C)O)[C@@H](C)O)[C@@H](C)CC)[C@@H](C)CC)C(=O)N[C@@H](CCC(=O)O)C(=O)NCC(=O)NCC(=O)N1CCC[C@H]1C(=O)N[C@@H](CO)C(=O)N[C@@H](CO)C(=O)NCC(=O)N[C@@H](C)C(=O)N1CCC[C@H]1C(=O)N1CCC[C@H]1C(=O)N1CCC[C@H]1C(=O)N[C@@H](CO)C(N)=O [Example 15],> 966 nM,0.0629 nM,–,–,–,–,–,–,"EC50 (hGLP-1R; 0.1% bovine casein and 1.0% human serum albumin, geometric mean): 24.8 nM; Emax (hGLP-1R; HEK293, 0.1% bovine casein and 1.0% human serum albumin, percent of maximal response to GLP-1(7-36)NH2): 93.2 ± 3.68%; Emax (hGLP-1R; HEK293, percent of maximal response to GLP-1(7-36)NH2, 0.1% bovine casein, arithmetic mean): 94.3 ± 4.44%; EC50 (hGIPR; [8]): 0.573 nM; Emax (hGIPR; HEK293, 0.1% bovine casein and 1.0% human serum albumin, 37° C., percent of maximal response to GIP(1-42)NH2): 94.4 ± 1.01%; Emax (hGIPR; HEK293, percent of maximal response to GIP(1-42)NH2, 37° C., 0.1% bovine casein, arithmetic mean): 95.9 ± 2.34%; EC50 (hGIPR; [9]): 0.0133 nM; EC50 (hGCGR; [8]): > 9950 nM; EC50 (hGCGR; [9]): > 9950 nM"
CC[C@H](C)[C@H](NC(=O)[C@H](CC(C)C)NC(=O)[C@](C)(Cc1ccc(O)cc1)NC(=O)[C@H](CCCCNC(=O)COCCOCCNC(=O)COCCOCCNC(=O)CC[C@H](NC(=O)CCCCCCCCCCCCC(=O)O)C(=O)O)NC(=O)[C@@H](NC(=O)[C@H](Cc1ccccc1)NC(=O)[C@H](CCC(=O)O)NC(=O)C(C)(C)NC(=O)[C@H](CCC(N)=O)NC(=O)[C@H](C)NC(=O)[C@H](CCC(N)=O)NC(=O)[C@H](CCCN)NC(=O)[C@H](CC(=O)O)NC(=O)[C@H](CC(C)C)NC(=O)[C@](C)(CC(C)C)NC(=O)[C@@H](NC(=O)C(C)(C)NC(=O)[C@H](Cc1ccncc1)NC(=O)[C@H](CC(=O)O)NC(=O)[C@H](CO)NC(=O)[C@@H](NC(=O)[C@](C)(Cc1ccccc1F)NC(=O)[C@@H](NC(=O)CNC(=O)[C@H](CCC(=O)O)NC(=O)C(C)(C)NC(=O)[C@@H](N)Cc1ccc(O)cc1)[C@@H](C)O)[C@@H](C)O)[C@@H](C)CC)[C@@H](C)CC)C(=O)N[C@@H](CCCCNC(=O)COCCOCCNC(=O)COCCOCCNC(=O)CC[C@H](NC(=O)CCCCCCCCCCCCC(=O)O)C(=O)O)C(=O)NCC(=O)NCC(=O)N1CCC[C@H]1C(=O)N[C@@H](CO)C(=O)N[C@@H](CO)C(=O)NCC(=O)N[C@@H](C)C(=O)N1CCC[C@H]1C(=O)N1CCC[C@H]1C(=O)N1CCC[C@H]1C(=O)N[C@@H](CO)C(N)=O [Example 411],> 957 nM,0.0375 nM,0.167 nM,84.6%,0.0102 nM,> 9950 nM,> 9950 nM,–,"Emax (hGLP-1R; HEK293, cAMP, 0.1% bovine casein, percent of maximal response to GLP-1(7-36)NH2, arithmetic mean): 110%; EC50 (hGLP-1R; cAMP, 0.1% bovine casein and 1.0% human serum albumin, geometric mean (SEM, n)): 11.4 nM; EC50 (hGIPR; [7]): 1.09 nM"
